pKi: −log10 of the molar value.
Key:
[1] = biological target: T1, human 5-HT7B (h5-HT7b) receptors (Homo sapiens, UniProt P34969); experiment: Competition radioligand binding, h5-HT7b; details: [3H]5-CT; membranes of HEK 293 cells; read-out: Ki 5-HT7
T1 construct: expressed in transfected cells
Source text: The compounds of the invention interact with 5-HT receptors and show selectivity for 5-HT receptors. The 5-HT receptor binding properties of the compounds are identified by competitive radioligand binding assays wherein membranes prepared from transfected cells expressing the 5-HT receptor subtype of interest. “Binding constants” refers herein to Ki values measured by inhibition of the binding of radiolabelled ligands that are selective for the 5-HT receptor type being studied. For 5-HT7 receptors, Ki values are determined by measuring the inhibition of 5-carboxamidotryptamine (5-CT) binding, wherein 5-HT7 receptors were incubated with the radiolabelled high affinity ligand, 5-carboxamidotryptamine ([^3H]5-CT), in the presence and absence of the compounds of the invention, at varying concentrations. The compounds of the invention have high binding affinity for serotonin receptors as measured by dissociation constant Ki. […] “Selectivity” for receptor type, in the context of this invention, refers to the ratio of binding constants for the two receptor types being compared. […] The compounds of the present invention preferably show selectivity for 5-HT7 receptors over other serotonin receptor subtypes of greater than about 100. The compounds of the present invention also preferably show selectivity for 5-HT7 receptors over other receptor types, such as dopamine D2, of greater than about 100.
Cells and Membrane Preparation: HEK 293 cells stably expressing human 5-HT7B (h5-HT7b) receptors were grown in Dulbecco's Modified Eagle's Medium (DMEM; Gibco) without sodium pyruvate and containing 4.5 g/L glucose, L-glutamine/penicillin-streptomycin (Gemini), 10% fetal bovine serum and 250 mg/l of the antibiotic, G418 (Geneticin) as previously described (Jasper, J. R., Kosaka, A., To, Z. P., Chang, D. J. and Eglen, R. M. (1997) Cloning, expression and pharmacology of a truncated splice variant of the human 5-ht7 receptor (h5-ht7b). Br. J. Pharmacol. 122(1):126-132.). Cell pellets were homogenized in approximately 50 mL of homogenization buffer (buffer A) containing: 50 mM Tris (pH 7.4), 2 mM EGTA, 0.32 M sucrose, 10 μM PMSF, 1 μg/mL leupeptin, 5 μg/mL Pepstatin A, and 5 μg/mL aprotinin using an UltraTurax homogenizer (Tekmar Company, Cincinnati, Ohio) at 80% maximum setting three times for 10 sec. Cell pellets were centrifuged at 4° C. at 1,500×g for 10 min in a Beckman GS-6R centrifuge. Pellets were resuspended in buffer A, homogenized and centrifuged as described above. Pooled supernatants were transferred to centrifuge bottles and centrifuged at 4° C. at 20,000×g for 30 min in a Beckman J2-HS centrifuge. Cell pellets were resuspended in buffer A and were centrifuged at 4° C. at 20,000×g for 30 min. Cell pellets were resuspended in buffer A and stored at −70° C. in aliquots of 2.5 mg/mL total membrane protein. Total membrane protein was assessed utilizing a BCA kit (Pierce; Rockford, Ill.). Membranes containing human 5-HT1a or 5HT2a receptors expressed in CHO K1 cells were prepared as described above.
Radioligand Binding Assays: For 5-HT7 saturation binding experiments, HEK-293 cell membranes expressing h5-HT7 receptors (5-10 μg membrane protein/well) were incubated in duplicate with [^3H]5-CT (approximately 0.2 nM) in binding assay buffer containing: 50 mM HEPES (pH 7.4), 0.5 mM EDTA, 10 mM MgCl2, 10 μM pargyline to inhibit monoamine oxidase activity, and 0.1% sodium ascorbate, in a final volume of 200 μL in 96-well polypropylene plates for 2 hours at 37° C. Nonspecific binding was determined by incubating membranes with 1 μM 5-HT. All radioligand binding assays were stopped by rapid filtration onto 96-well GF/C filter plates (Packard) soaked in 0.1% polyethylenimine. Filters were washed three times with ice-cold phosphate-buffered saline (PBS) wash buffer containing 50 mM NaPO4 (pH 7.4), 0.9% NaCl, 2 mM MgCl2 and 0.02% NaN3. The filters were then counted using liquid scintillation in a Packard Topcount scintillation counter. […]

[2] = biological target: T2, human 5-HT6 (h5-HT6) receptors (Homo sapiens, UniProt P50406); experiment: Competition radioligand binding, h5-HT6; details: [3H]LSD; membranes of HEK-293 cells; read-out: Ki 5-HT6
T2 construct: purchased Receptor Biology, Inc. (Beltsville, Md.); host or cells: HEK-293 cells
T2 sequence (P50406 whole entry): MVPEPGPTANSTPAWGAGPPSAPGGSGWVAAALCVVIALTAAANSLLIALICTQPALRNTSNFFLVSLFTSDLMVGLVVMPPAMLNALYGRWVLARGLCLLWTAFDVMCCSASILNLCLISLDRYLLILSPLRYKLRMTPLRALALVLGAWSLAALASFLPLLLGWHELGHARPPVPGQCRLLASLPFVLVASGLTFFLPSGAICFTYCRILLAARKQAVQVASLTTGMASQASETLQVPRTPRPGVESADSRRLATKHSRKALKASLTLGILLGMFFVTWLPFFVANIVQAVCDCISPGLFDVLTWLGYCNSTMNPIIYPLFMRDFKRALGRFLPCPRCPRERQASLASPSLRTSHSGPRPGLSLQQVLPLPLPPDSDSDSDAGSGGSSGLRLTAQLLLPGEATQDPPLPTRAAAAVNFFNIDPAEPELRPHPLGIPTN

[3] = biological target: T3, human D2S dopamine (hD2S-DA) receptors (Homo sapiens, UniProt P14416); experiment: Competition radioligand binding, hD2S dopamine; details: [3H]Spiperone; membranes of A9 L cells; read-out: Ki D2
T3 construct: purchased Receptor Biology, Inc. (Beltsville, Md.); host or cells: A9 L cells
T3 sequence (P14416 1-414 isoform P14416-2): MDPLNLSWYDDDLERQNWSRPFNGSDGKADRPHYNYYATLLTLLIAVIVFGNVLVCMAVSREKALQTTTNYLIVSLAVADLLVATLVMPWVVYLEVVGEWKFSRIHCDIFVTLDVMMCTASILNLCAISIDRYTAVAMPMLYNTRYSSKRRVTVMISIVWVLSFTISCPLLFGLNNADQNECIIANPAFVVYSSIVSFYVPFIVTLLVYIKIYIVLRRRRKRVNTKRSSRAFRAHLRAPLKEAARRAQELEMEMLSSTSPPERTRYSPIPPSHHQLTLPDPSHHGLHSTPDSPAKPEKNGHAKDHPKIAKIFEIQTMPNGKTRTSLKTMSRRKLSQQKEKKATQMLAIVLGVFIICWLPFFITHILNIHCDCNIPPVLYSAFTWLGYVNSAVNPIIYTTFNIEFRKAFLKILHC

T1 sequence (P34969 1-432 limits assumed): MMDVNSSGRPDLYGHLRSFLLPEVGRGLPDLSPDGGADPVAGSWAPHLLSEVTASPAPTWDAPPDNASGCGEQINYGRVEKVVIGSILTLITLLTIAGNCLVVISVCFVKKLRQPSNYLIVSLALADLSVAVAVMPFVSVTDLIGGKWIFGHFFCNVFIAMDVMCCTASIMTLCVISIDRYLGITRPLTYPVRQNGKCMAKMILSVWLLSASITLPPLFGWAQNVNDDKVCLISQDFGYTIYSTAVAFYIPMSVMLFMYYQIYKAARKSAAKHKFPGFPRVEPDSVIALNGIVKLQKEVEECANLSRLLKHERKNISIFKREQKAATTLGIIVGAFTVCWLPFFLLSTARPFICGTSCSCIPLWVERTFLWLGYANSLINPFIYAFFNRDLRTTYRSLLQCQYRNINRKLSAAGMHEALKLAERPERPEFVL

| pKi [1] | pKi [2] | pKi [3] | Structure (SMILES) |
| --- | --- | --- | --- |
| 6.03 | – | – | N=C(NCc1cccc2ccccc12)NC(=O)N1CCNCC1 [Example 37, N-(1-Naphthylmethyl)-N′-(1-piperazinylcarbonyl)guanidine] |
| 7.89 | 5.11 | 5.75 | N=C(NCc1cccc2ccccc12)NC(=O)NC1CC1 [Example 34, 1-({[{[(Cyclopropylamino)carbonyl]amino}(imino)methyl]amino}methyl)naphthalene] |
| 5.57 | – | – | O=C(Nc1nc2ccccc2[nH]1)Nc1cc(F)ccc1F [Example 89] |
| 7.32 | 5.91 | 6.05 | N=C(NCc1cccc2ccccc12)NC(=O)NCCc1ccc(N)cc1 [Example 33, 1-({[({[(4-Amninophenethyl)amino]carbonyl}amino)(imino)methyl]amino}methyl) naphthalene] |
| 6.00 | – | – | CNC(=O)/N=C(/NCc1cccc2ccccc12)NC(=O)NC [Example 52, N-Methyl-N′-{(Z)-{[(methylamino)carbonyl]amino}[(1-naphthylmethyl)amino]methylidene}urea] |
| 6.92 | 6.28 | 6.07 | N=C(NCc1cccc2ccccc12)NC(=O)NCCSCc1c(F)cccc1Cl [Example 47, 1-[10-(2-Chloro-6-fluorophenyl)-3-imino-5-oxo-9-thia-2,4,6-triazadec-1-yl]naphthalene] |
| 7.48 | 6.30 | 6.05 | N=C(NCc1cccc2ccccc12)NC(=O)NCc1c(N)cccc1F [Example 44, 1-({[({[(2-Amino-6-fluorobenzyl)amino]carbonyl}amino)(imino)methyl]amino}methyl)naphthalene] |
| 7.66 | 5.76 | 5.90 | N=C(NCc1cccc2ccccc12)NC(=O)N[C@H]1c2ccccc2C[C@H]1O [Example 42, 1-({[[({[(1S,2R)-2-Hydroxy-2,3-dihydro-1H-inden-1-yl]amino}carbonyl)amino](imino)methyl]amino}methyl)naphthalene] |
| 8.01 | 5.58 | 5.77 | CC(C)(CO)CNC(=O)NC(=N)NCc1cccc2ccccc12 [Example 48, 1-({[({[(3-Hydroxy-2,2-dimethylpropyl)amino]carbonyl}amino)(imino)methyl]amino}methyl)naphthalene] |
| 7.52 | 5.95 | 6.08 | COc1cc(CNC(=O)NC(=N)NCc2cccc3ccccc23)cc(OC)c1OC [Example 49, 1-({[Imino({[(3,4,5-trimethoxybenzyl)amino]carbonyl}amino)methyl]amino}methyl)naphthalene] |
| 5.91 | – | – | COc1ccc(CNC(=N)NC(C)=O)c2ccccc12 [Example 88, N-Acetyl-N′-[(4-methoxy-1-naphthyl)methyl]guanidine] |
| 6.12 | – | – | COc1ccccc1N1CCN(C(=O)NC(=N)N[C@H](C)c2cccc3ccccc23)CC1 [Example 83, N-{[4-(2-Methoxyphenyl)-1-piperazinyl]carbonyl}-N′-[(1R)-1-(1-naphthyl)ethyl]guanidine] |
| 6.92 | 5.93 | 6.40 | N=C(NCc1cccc2ccccc12)NC(=O)NCCc1c[nH]c2ccc(Cl)cc12 [Example 39, 5-Chloro-3-(2-{[({imino[(1-naphthylmethyl)amino]methyl}amino)carbonyl]amino}ethyl)-1H-indole] |
| 5.97 | – | – | COc1ccccc1N1CCN(C(=O)NC(=N)N[C@H](C)c2ccc3ccccc3c2)CC1 [Example 82, N-{[4-(2-Methoxyphenyl)-1-piperazinyl]carbonyl}-N′-[(1R)-1-(2-naphthyl)ethyl]guanidine] |

Further lines, the compound ahead of its results:

| Structure (SMILES) | pKi [1] | pKi [2] | pKi [3] |
| --- | --- | --- | --- |
| COC(=O)NC(=N)NCc1cccc2ccccc12 [Example 4, Methylimino[(1-naphthylmethyl)amino]methylcarbamate] | 6.09 | – | – |
| CC(=O)NCCNC(=O)NC(=N)NCc1cccc2ccccc12 [Example 26, N-(2-{[({Imino[(1-naphthylmethyl)amino]methyl}amino)carbonyl]amino}ethyl)acetamide] | 8.00 | 5.84 | < 5.60 |
| N=C(NCc1cccc2ccccc12)NC(=O)NCc1cccs1 [Example 20, 2-({[({Imino[(1-naphthylmethyl)amino]methyl}amino)carbonyl]amino}methyl)thiophene] | 7.80 | 5.87 | 6.27 |
| N=C(NCc1cccc2ccccc12)NC(=O)NCc1cccc(CN)c1 [Example 17, 1-({[[({[3-(Aminomethyl)benzyl]amino}carbonyl)amino](imino)methyl]amino}methyl)naphthalene] | 7.96 | 6.17 | 6.32 |
| N=C(NC(=O)NCc1cccc(Cl)c1Cl)NC1CCCCC1O (stereo not drawn) [Example 9, 1,2-Dichloro-3-{[({[[(2-hydroxycyclohexyl)amino](imino)methyl]amino}carbonyl)amino]methyl}benzene] | 6.49 | – | – |
| N=C(NCc1cccc2ccccc12)NC(=O)N[C@@H](CO)c1ccccc1 [Example 19, 1-({[[({[(1R)-2-Hydroxy-1-phenylethyl]amino}carbonyl)amino](imino)methyl]amino}methyl)naphthalene] | 6.96 | 6.03 | 6.70 |
| N=C(NCc1cccc2ccccc12)NC(=O)Nc1cccc(C(N)=O)c1 [Example 27, 3-{[({Imino[(1-naphthylmethyl)amino]methyl}amino)carbonyl]amino}benzamide] | 7.74 | 7.10 | < 5.60 |
| N=C(NCc1cccc2ccccc12)NC(=O)N1CCCC(C(N)=O)C1 (stereo not drawn) [Example 12, 1-[({Imino[(1-naphthylmethyl)amino]methyl}amino)carbonyl]-3-piperidine carboxamide] | 6.74 | – | – |
| N=C(NCc1cccc2ccccc12)NC(=O)NCCCO [Example 16, 1-({[({[(3-Hydroxypropyl)amino}carbonyl}amino)(imino)methyl]amino}methyl)naphthalene] | 7.68 | 6.32 | 6.30 |
| COc1ccc(CNC(=O)NC(=N)NCc2cccc3ccccc23)cc1 [Example 28, 1-({[Imino({[(4-methoxybenzyl)amino]carbonyl}amino)methyl]amino}methyl)naphthalene] | 7.37 | 5.47 | 6.30 |
| Cc1ccccc1CNC(=O)NC(=N)NCCc1ccccn1 [Example 10, 2-(2-{[Imino([{(2-methylbenzyl)amino]carbonyl}amino)methyl]amino}ethyl)pyridine] | 6.60 | – | < 5.60 |
| N=C(NCc1cccc2ccccc12)NC(=O)NCc1ccc(F)cc1 [Example 32, 1-({[({[(4-Fluorobenzyl)amino]carbonyl}amino)(imino)methyl]amino}methyl)naphthalene] | 7.62 | 5.89 | 6.11 |
| N=C(NCc1cccc2ccccc12)NC(=O)NCCc1ccc(O)cc1 [Example 31, 1-({[({[(4-Hydroxyphenethyl)amino]carbonyl}amino)(imino)methyl]amino}methyl) naphthalene] | 7.72 | – | – |
